In ChEMBL document CHEMBL1201862, “PubChem BioAssay data set” (2004):
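Where inhibition never reached the appropriate level, the endpoint shown equals the highest concentration tested. Otherwise, values were interpolated linearly from a five-concentration, 48-hour dose response in 96-well plates. GI50 = concentration required for 50% inhibition of growth.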 Active and inactive are the calls of the source. Rule as the data show it: active = GI50 up to about 1.1 µM and inactive = higher.

Experiments:
Assay in all cases: DTP human tumour cell line panel, 48 h
[1] = tested on: 786-0
[2] = tested on: ACHN
[3] = tested on: CCRF-CEM
[4] = tested on: DU-145
[5] = tested on: HL-60
[6] = tested on: IGROV-1
[7] = tested on: LOX IMVI
[8] = tested on: M14
[9] = tested on: MCF7
[10] = tested on: MDA-N
[11] = tested on: NCI/ADR-RES
[12] = tested on: SF-268
[13] = tested on: SF-295
[14] = tested on: SK-MEL-2
[15] = tested on: SK-MEL-5
[16] = tested on: TK-10
[17] = tested on: UACC-62
[18] = tested on: Malme-3M
[19] = tested on: NCI-H522
[20] = tested on: NCI-H226

Measured: GI50

O=C(c1ccccc1)c1ccc(N2C(=O)/C(=C/c3ccccc3S)N=C2c2ccccc2)c(N2C(=O)/C(=C/c3ccccc3S)N=C2c2ccccc2)c1
inactive: [1] > 100 µM | [2] 60.4 µM | [3] 22.2 µM | [4] 59 µM | [5] 11.8 µM | [6] 46.9 µM | [7] 24.9 µM | [8] 38.2 µM | [9] 45.6 µM | [10] 36.5 µM | [11] 32.4 µM | [12] 39.9 µM | [13] 46.6 µM | [14] 22.7 µM | [15] 29.4 µM | [16] > 100 µM | [17] 49.4 µM

O=c1c(Nc2ccccc2)cn(CCOc2ccccc2)c(=O)n1CCOc1ccccc1
inactive: [1] 28.2 µM | [2] 37.7 µM | [3] > 100 µM | [4] 53 µM | [5] > 100 µM | [6] 36.3 µM | [7] > 100 µM | [8] 70.5 µM | [9] > 100 µM | [10] > 100 µM | [18] 79.6 µM | [19] 29.1 µM | [11] 47.2 µM | [12] 16.5 µM | [13] 52.5 µM | [15] 47.9 µM | [17] 41.2 µM

CCCCCCCc1c(Cl)nc(Cl)nc1Cl
inactive: [1] 3.56 µM | [2] 8.61 µM | [4] 14.3 µM | [5] 2.45 µM | [6] 2.29 µM | [7] 1.45 µM | [8] 2.13 µM | [9] 10.4 µM | [10] 3.75 µM | [18] 3.01 µM | [20] 2.04 µM | [19] 1.74 µM | [11] 4.26 µM | [12] 4.66 µM | [13] 16.9 µM | [15] 4.31 µM | [16] 13.6 µM | [17] 5.82 µM
active: [3] 0.494 µM

Cc1cc(=O)[nH]c(-n2[nH]c3c(c2=O)CCCC3)n1
inactive: [1] 57.7 µM | [2] 49.4 µM | [3] 34.5 µM | [4] > 100 µM | [5] 50.5 µM | [6] 97.3 µM | [8] 73.1 µM | [9] 63 µM | [10] > 100 µM | [18] > 100 µM | [20] > 100 µM | [19] > 100 µM | [12] 28.2 µM | [13] 46 µM | [14] 52.1 µM | [15] 82 µM | [16] > 100 µM | [17] 39.2 µM

O=[N+]([O-])c1cccc([N+](=O)[O-])c1S(=O)(=O)c1ccccc1
inactive: [1] 2.09 µM | [2] 2.17 µM | [4] 6.05 µM | [5] 2.71 µM | [6] 1.89 µM | [7] 1.84 µM | [8] 2.27 µM | [9] 5.87 µM | [10] 5.51 µM | [18] 2.28 µM | [20] 12.2 µM | [11] 6.24 µM | [12] 12.2 µM | [13] 16.4 µM | [15] 14.1 µM | [16] 16 µM
active: [3] < 0.01 µM

CSc1nnc(SC)nn1
inactive: [1] 13.8 µM | [2] 16.8 µM | [3] 1.81 µM | [4] 20.4 µM | [5] 3.65 µM | [6] 16.3 µM | [7] 19.6 µM | [8] 15.5 µM | [9] 17 µM | [10] 16.1 µM | [18] 13 µM | [20] 32.4 µM | [19] 16.4 µM | [11] 16.8 µM | [12] 15.9 µM | [13] 18.1 µM | [15] 15.8 µM | [16] 12.6 µM | [17] 18.2 µM

Cc1ccc2c(c1)CC1(Cc3cccc(C)c3C1=O)C2=O (stereo unspecified)
inactive: [1] > 100 µM | [2] > 100 µM | [3] 70.1 µM | [4] > 100 µM | [5] 38.3 µM | [6] > 100 µM | [7] > 10 µM | [8] 64.4 µM | [9] > 10 µM | [10] > 10 µM | [18] 85.5 µM | [20] > 100 µM | [19] 82.6 µM | [11] > 100 µM | [12] > 100 µM | [13] > 100 µM | [15] 32.3 µM | [16] > 100 µM | [17] 48.4 µM
